# Reference: patent US4868171A, “Antibiotic A 40926 N-acylaminoglucuronyl aglycons and antiobiotic A 40926 aglycon” (Gruppo Lepetit S.p.A., priority 1986, dated 1989)
# Assays:
# Staph. aureus L165 = test: MIC determination, standard dilution test (Isosensitest broth); assay type: cell-based; conditions: Staphylococcus aureus
# [1] = tested on: Staph. epidermidis L147 ATCC 12228 (coagulase negative); test: as above; assay type: cell-based; conditions: Staphylococcus epidermidis, ATCC12228, 24 h
# Strep. pyogenes L49 C203 = test: MIC determination, standard dilution test (Todd-Hewitt broth); assay type: cell-based; conditions: Streptococcus pyogenes, L49C203, 24 h
# [2] = tested on: Strep. pneumoniae L44 UC41; test: as above; assay type: cell-based; conditions: Streptococcus pneumoniae, 24 h
# [3] = tested on: Strep. faecalis L149 ATCC 7080; test: MIC determination, standard dilution test (Isosensitest broth); assay type: cell-based; conditions: Enterococcus faecalis, ATCC7080, 24 h
# [4] = tested on: Strep. mitis L796 (clinical isolate); test: MIC determination, standard dilution test (Todd-Hewitt broth); assay type: cell-based; conditions: Streptococcus mitis, 24 h
# [5] = tested on: Clostridium perfringens L290 ISS 30543; test: microbe, parasite or virus in culture; assay type: cell-based; conditions: L290ISS30543, 24 h
# [6] = tested on: Clostridium difficile L1363 ATCC 9689; test: MIC determination, agar dilution (Wilkins-Chalgren agar, anaerobic); assay type: cell-based; conditions: Clostridioides difficile, ATCC9689, 48 h
# [7] = tested on: Propionibacterium acnes L1014 ATCC 6919; test: as above; assay type: cell-based; conditions: Cutibacterium acnes, ATCC6919, 48 h
# [8] = tested on: Bacteroides fragilis L1010 ATCC 23745; test: as above; assay type: cell-based; conditions: ATCC23745, 48 h
# [9] = tested on: Neisseria gonorrhoeae L997 ISM68/126; test: MIC determination, standard dilution test (GC base broth + 1% Isovitalex); assay type: cell-based; conditions: L997ISM68/126, 48 h, CO2-enriched
# [10] = tested on: Haemophilus influenzae L 970 type b ATCC 19418; test: MIC determination, standard dilution test (Brain Heart broth + 1% Supplement C); assay type: cell-based; conditions: ATCC19418, 48 h
# [11] = tested on: Escherichia coli L47 SKF 12140; test: MIC determination, standard dilution test (Isosensitest broth); assay type: cell-based; conditions: L47SKF12140, 24 h
# [12] = tested on: Mycoplasma gallisepticum L431 S6 Weybridge; test: MIC determination, standard dilution test (PPLO broth); assay type: cell-based; conditions: Mycoplasmoides gallisepticum; PPLO broth + 10% horse serum + 1% glucose, 48 h
# S. pyogenes C 203 (L 49) = test: Experimental septicemia in the mouse; assay type: in vivo, CD-1 mice infected with S. pyogenes; conditions: Streptococcus pyogenes, sc, 168 h, subcutaneous immediately after infection, survival on 7th day
# Procedure: The antimicrobial activity of the compounds of the invention is confirmed also in experimental septicemia in the mouse. Control and treatment groups contained ten CD-1 mice (Charles River) weighing 18-22 g. They were infected intraperitoneally with 0.5 ml of bacterial suspension prepared by diluting an overnight culture of S. pyogenes C 203 (L 49) with sterile peptonized saline. Inocula were adjusted so that untreated animals died of septicemia within 48 h. The compounds to be tested were administered subcutaneously immediately after infection. On the 7th day, the ED50 in mg/kg was calculated by the method of Spearman and Karber (D. J. Finney "Statistical Methods in Biological Assay", Griffin, page 524, 1952) from the percentage of surviving animals at each dose.
smiles,measurement,setting,value
CNC1C(=O)NC2Cc3ccc(cc3)Oc3cc4cc(c3O)Oc3ccc(cc3Cl)C(O)C3NC(=O)C(NC(=O)C4NC(=O)C(NC2=O)c2cc(cc(O)c2Cl)Oc2cc1ccc2O)c1ccc(O)c(c1)-c1c(O)cc(O)cc1C(C(=O)O)NC3=O (stereo not shown) [Antibiotic A 40926 aglycon],MIC,"Staph. aureus L165; L165, 24 h, Staph. aureus L165 (10^6 cfu/ml)",0.25 µg/mL
same,MIC,"Staph. aureus L165; Staph. aureus L165, 24 h, about 10^4-10^5 cfu/ml",0.13 µg/mL
same,MIC,[1],0.13 µg/mL
same,MIC,Strep. pyogenes L49 C203,0.5 µg/mL
same,MIC,[2],1 µg/mL
same,MIC,[3],0.5 µg/mL
same,MIC,[4],0.5 µg/mL
same,MIC,[5],0.25 µg/mL
same,MIC,[6],1 µg/mL
same,MIC,[7],1 µg/mL
same,MIC,[8],32 µg/mL
same,MIC,[9],16 µg/mL
same,MIC,[10],32 µg/mL
same,MIC,[11],128 µg/mL
same,MIC,[12],> 128 µg/mL
same,ED50,S. pyogenes C 203 (L 49),6.2 mg/kg
